These results are taken from patent US5144017A, “Compounds that bind to digitalis receptor” (University of Manitoba, priority 1988, dated 1992).

Where two headings read alike, the source gives them in different places.

The conditions of data set [1]: prior art; cited from earlier work.
The conditions of data set [2]: prior art; cited from earlier work. This is another data set of the same source.
Data set [3] is described as follows: intrarenal infusion: urine volume, sodium and potassium excretion. Type of data set: in vivo. From the text: The effects of an intrarenal infusion of ouabain and 14β-hydroxyprogesterone glucoside were compared. […] This marked natriuresis and absence of kaliuresis by the cardiotonic pregnane has practical clinical implications. […]
In data set [4] the target is cardiac glycoside (CG) binding site (digitalis receptor) of heart muscle. Kind of data set: 3H-ouabain radioligand binding assay (RBA). More on the design: species or system dog. The note with it: for IC50: read-out: binding / displacement potency in the 3H-ouabain RBA (IC50); for receptor potency relative to the aglycone: glucoside versus aglycone. The protocol: An extensive study has been conducted by the inventors with respect to a wide series of steroids of the pregnane and androstane type. The potencies of these steroids were determined in a ^3 H-ouabain radioligand binding assay (RBA). Past experience has indicated to the inventors that the potency of the steroids to displace the labelled cardiac glycoside (i.e. ouabain) in the assay parallel their biological activity, that is their cardiac glycoside-like activity in the ability to inhibit Na/K-ATPase and elicit characteristic cellular response.
Binding studies were carried out in a ^3 H-ouabain radioligand binding assay (RBA) generally as described by Chow et al in Br. J. Pharmac. (1979), 67, 345 to 352. The results obtained are set forth in the Examples below:
A number of progesterone derivatives, having a 17α-acetoxy group and various functions at C-3 and C-6, interact at the cardiac glycoside (CG) binding site, as measured by the RBA with membranes from dog myocardium. Experimental values are given in the Table of FIG. 4 and structures in FIG. 3. The inventors have carried out structure-activity studies concerned with modification of the A and B rings as they influence potency in the RBA. As may be seen from the data, some progesterone derivatives with 5α- or 5β-stereochemistry show receptor competing activity. Among the congeners, highest potency is associated with the presence of C-4 or C-4,6-unsaturation and a C-6 substituent (CH3, Cl, Br). The C-3 function may be carbonyl, 3β-hydroxy, 3β-acetoxy or β-D-glucoside when associated with C-4 or C-4,6 unsaturation. In compounds with other substituents that promote activity, C-6α-substitution with --CH3, --Cl or --Br strongly enhance activity, --F, --OCH3, carbonyl or the unsubstituted compound promotes weak binding, and --OC2 H5, --OAc, --OCOOCH3 or --OH eliminates binding activity. Receptor interaction with the double bond at C-4, but not C-5, appears to be particularly important for binding.

The subject of data set [5] is canine ventricular trabeculae muscle. The experiment in a line: contractile (inotropic) response of canine ventricular trabeculae muscle.
The next data set relates to isolated heart muscle. The experiment in a line: cardiostimulation in isolated heart muscle. The source says:
Differences in toxicity, i.e. the tolerance to increasingly-greater dosage levels before the onset of arrhythmia, exist among the various steroid glycosides.

The test system of another data set is Na/K-ATPase. To be noted: prior art; cited from earlier work.
The conditions of data set [6]: prior art; cited from earlier work. This is another data set of the same source.
[7] abbreviates: listed as β-D-glucoside of 14β-hydroxyprogesterone.
[8] abbreviates: cardiac receptor of heart muscle, membranes from dog myocardium.

For `C[C@@H]1O[C@@H](O[C@H]2CC[C@@]3(C)[C@H](CC[C@@H]4[C@@H]3CC[C@]3(C)[C@@H]([C@@H](C)O)CC[C@]43N)C2)[C@H](O)[C@H](O)[C@H]1O` [3β-rhamnosyloxy-14β-amino-5β-pregnane-20β-ol], the “effect on cardiac contractility compared with digoxin” value in data set [1] was “superior, in terms of tolerance to higher dosage”. In addition, the “potency compared with the cardiac glycosides” value in data set [2] was “as potent as the cardiac glycosides”.

On to `C[C@@H]1O[C@@H](O[C@H]2C[C@@H](O)[C@]3(CO)[C@H]4[C@H](O)C[C@]5(C)[C@@H](C6=CC(=O)OC6)CC[C@]5(O)[C@@H]4CC[C@]3(O)C2)[C@H](O)[C@H](O)[C@H]1O` [ouabain, reference compound], for which, in data set [3], the potassium excretion result was “marked increase in potassium excretion”, the sodium excretion entry was “little or no change in sodium excretion” and the urine volume entry is “increased urine volume”. Moreover, in data set [4] (values in nM), the IC50 was found to be 14 nM.

Consider `CC(=O)[C@H]1CC[C@]2(O)[C@@H]3CCC4=C[C@@H](O[C@@H]5O[C@H](CO)[C@@H](O)[C@H](O)[C@H]5O)CC[C@]4(C)[C@H]3CC[C@]12C` [compound 8], for which the inotropic response result in data set [5] (dose dependent) is listed as “positive inotropic response”. In data set [5] (during peak inotropic response and subsequent depression), the “after contractions on rapid electrical stimulation (digitalis-like toxic response)” value was “possible to elicit spontaneous after contraction(s)”. The “contractile response at high concentrations” value in data set [5] (high concentrations) was “biphasic contractile response, an initial increase followed by a decrease”. For the same compound, in data set [3], the urine volume result was “increased urine volume”. The potassium excretion entry in data set [3] (listed as 14β-OHP-glu) is “no influence on potassium excretion”; in data set [3] (setting [7]) it was “little effect on potassium excretion”. Moreover, the sodium excretion entry in data set [3] (listed as 14β-OHP-glu) is on record as “increased sodium excretion significantly”; in data set [3] (setting [7]), “increased sodium excretion”. Moreover, the IC50 in data set [4] (setting [8]) stood at 1800 nM. The “receptor potency relative to the aglycone” value is listed as “about 10 times” in data set [4] (listed as 14β-OHP-glu) and “approximately ten” in data set [4] (setting [7]).

For the compound `CC(=O)[C@H]1CC[C@]2(O)[C@@H]3CC[C@@H]4CC(=O)CC[C@]4(C)[C@H]3CC[C@]12C` [compound 3], the cardiostimulation result with isolated heart muscle is on record as “cardiostimulant”. The IC50 in data set [4] (setting [8]) turned out to be 60000 nM. Moreover, in data set [4] (qualitative statement), the “binding activity in the RBA, in words” value is “weaker than 14β-hydroxyprogesterone”.

As for `CC(=O)O[C@]1(C(C)=O)CC[C@H]2[C@@H]3C=C(Cl)C4=CC(=O)CC[C@]4(C)[C@H]3CC[C@@]21C` [compound 20, 17α-acetoxy-6-chloropregna-4,6-diene-3,20-dione, reference compound], the “affinity / potency at Na/K-ATPase” value with Na/K-ATPase is on record as “high affinity”. In addition, in data set [4] (setting [8]), the IC50 was 500 nM. Also, the “potency in the RBA relative to ouabain” value in data set [4] (fraction of the potency of ouabain) is 1/20. Besides, the “effect on cardiac contractility” value in data set [6] is reported as “cardiodepression or decreased contractility”.

As to `CC(=O)O[C@]1(C(C)=O)CC[C@H]2[C@@H]3C[C@H](C)C4=C[C@@H](O[C@@H]5O[C@H](CO)[C@@H](O)[C@H](O)[C@H]5O)CC[C@]4(C)[C@H]3CC[C@@]21C` [β-D-glucoside, 17α-Acetoxy-6α-methyl-3-β-[β-D-(glucopyranosyl)oly]-pregn-4-en-20-one], in data set [3], the potassium excretion entry is listed as “potassium sparing” and the sodium excretion entry is given as “sodium excreting”. In addition, the IC50 in data set [4] (setting [8]) amounted to 3300 nM.

Regarding `CC(=O)[C@H]1CC[C@]2(O)[C@@H]3CCC4=CC(=O)CC[C@]4(C)[C@H]3CC[C@]12C` [compound 6, 14β-hydroxyprogesterone], in the data set on isolated heart muscle, the cardiostimulation entry is listed as “elicits cardiostimulation”. The IC50 in data set [4] (setting [8]) came to 10000 nM.
